Experimental data from patent publication US20260297542A1, “HERBICIDE RESISTANT PLANTS” (SYNGENTA CROP PROTECTION AG, priority 2023, published 2026).
Residue numbers refer to the chain shown, from its start.

Key:
[1] = target: T1, His-TEV-AtPPO1 ΔcTP V002 (SEQ ID NO: 373) (Arabidopsis thaliana, UniProt P55826, L479M/S305L/Y426V); experiment: activity rate of PPO variant in in vitro assay; type: biochemical; conditions: role: substrate; 1 uM protoporphyrinogen IX; no inhibitor
T1 construct: with cTPs removed; made in house; host or cells: E. coli BL21 (DE3), His GraviTrap, partially purified
T1 sequence (P55826 with tags, fused parts or gaps S305L/Y426V/L479M): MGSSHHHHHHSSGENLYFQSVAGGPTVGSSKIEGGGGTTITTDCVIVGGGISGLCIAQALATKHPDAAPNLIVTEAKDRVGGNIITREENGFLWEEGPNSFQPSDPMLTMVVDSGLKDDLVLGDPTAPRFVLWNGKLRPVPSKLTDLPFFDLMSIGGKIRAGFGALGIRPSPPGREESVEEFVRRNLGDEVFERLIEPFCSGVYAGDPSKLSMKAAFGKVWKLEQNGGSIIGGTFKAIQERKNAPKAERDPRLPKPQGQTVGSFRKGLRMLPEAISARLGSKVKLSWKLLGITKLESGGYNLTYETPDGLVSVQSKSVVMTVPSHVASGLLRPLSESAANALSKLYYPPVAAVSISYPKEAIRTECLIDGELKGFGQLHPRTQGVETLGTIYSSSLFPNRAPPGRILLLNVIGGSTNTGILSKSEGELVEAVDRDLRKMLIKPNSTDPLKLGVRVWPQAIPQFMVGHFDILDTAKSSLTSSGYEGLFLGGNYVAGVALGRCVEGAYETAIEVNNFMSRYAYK
Description: (§1) A pET24 plasmid containing a DNA sequence encoding variants of AtPPO1 derived from Arabidopsis thaliana with cTPs removed and both a 6×His tag and TEV protease cleavage tag added at the N-terminus, codon-optimised for expression in E. coli, and under control of a T7 promoter, was synthesised by Twist Bioscience. The following variants were synthesised: WT AtPPO1 (SEQ ID NO: 370), AtPPO1 L479M (SEQ ID NO: 371), AtPPO1 L479N (SEQ ID NO: 372), AtPPO1 S305L Y426V (SEQ ID NO: 374) and AtPPO1 S305L Y426V L479M (SEQ ID NO: 373). This plasmid was expressed in E. coli BL21 (DE3) with 50 μg/mL kanamycin selection. 10 mL of overnight cultures grown at 37° C. were used to inoculate 1 L AIM (AIM-Terrific Broth Base including Trace elements, Formedium) in 2 L shake flasks. Cultures were grown at 37° C., 200 rpm for 3 hours and then overnight at 26° C. Cells were harvested centrifugation. 5-15 g of cell pellet was lysed in and resuspended in ratio of 1:1.5 in lysis buffer (20 mM Tris pH8, 500 mM sodium chloride, 10% glycerol, 1× complete Protease EDTA-free Inhibitor Tablet (Roche), 10 mM imidazole). The resuspension was sonicated at 75% using 10 cycles of 30 seconds, 40 seconds off. After sonication Triton X-100 was added to the lysates at a final concentration of 0.5%. The lysates were centrifuged at 20,000 rpm for 25 min at 4° C. Cleared lysates were loaded on His GraviTrap (Cytiva) columns, washed with 20 mL of lysis buffer and eluted in elution buffer (20 mM Tris pH8, 500 mM sodium chloride, 10% glycerol, 200 mM imidazole, 0.03% (v/v) Triton X-100). The eluate was desalted on a PD10 column and 2.5-3.2 mL was collected. Protein concentration was measured and calculated using the absorbance at 280 nm. Extracts were diluted 1 in 4 and 10 uL was analysed by SDS PAGE.
(§2) Partially purified Protoporphyrinogen Oxidase enzymes were assayed for activity using fluorescence adapted from the method of Shepherd & Dailey (Anal Biochem. 2005 344(1) 115-121). The assay was performed in black 384 well plates with a clear bottom and the total volume of the reaction mixture was 91 ul. The final assay mixture contained 100 mM K2HPO4 pH7.2, 1 mM Na2EDTA, 5 mM DTT, 20% glycerol (v/v), 0.05% Tween 20 (v/v), 1.1% DMSO (v/v), 1 uM protoporphyrinogen IX and 1.5 nM enzyme. Compounds were dissolved in DMSO at 1 mM and a 4-fold serial dilution carried out to give 8 rates. 1 ul was added to the assay mixture. This gave final compound concentrations of 11, 2.7, 0.69, 0.17, 0.04, 0.01, 0.002, 0.0007 uM. Enzyme and inhibitor were preincubated for 5 minutes prior to starting the reaction with the addition of the substrate. […] IC50s were calculated using GraphPad Prism 7.05 nonlinear regression (Table 6). Each compound was tested in duplicate.

[2] = target: T2, His-TEV-AtPP01 ΔcTP L479N (SEQ ID NO: 372) (Arabidopsis thaliana, UniProt P55826, L479N); experiment: activity rate of PPO variant in in vitro assay; type: biochemical; conditions: role: substrate; 1 uM protoporphyrinogen IX; no inhibitor
T2 construct: with cTPs removed; made in house; host or cells: E. coli BL21 (DE3), His GraviTrap, partially purified
T2 sequence (P55826 with tags, fused parts or gaps L479N): T1 sequence (P55826 with tags, fused parts or gaps S305L/Y426V/L479M) with L290S, V411Y, M464N
Description: as §1, §2

`C=Cc1c2[nH]c(c1C)Cc1[nH]c(c(CCC(=O)O)c1C)Cc1[nH]c(c(C)c1CCC(=O)O)Cc1[nH]c(c(C)c1C=C)C2` [protoporphyrinogen IX] was tested, and the Rate [1] was 7.6 rfu second^−1 pmole^−1 and the Rate [2] was 13.2 rfu second^−1 pmole^−1.
